Assay results: patent EP4768487A1, “FUSED LACTAM RING COMPOUND AND USE THEREOF” (Chengdu Zenitar Biomedical Technology Co., Ltd., priority 2023, dated 2025)

How the values were obtained:
[1] = system: BRCA-mutated MDA-MB-436 cells; test: Anti-proliferative activity against cells (CCK8): MDA-MB-436; format: cell-based; conditions: Homo sapiens, 72 h + 96 h culture
[2] = system: BRCA wild-type DLD-1 cells; test: Anti-proliferative activity against cells (CCK8): DLD-1; format: cell-based; conditions: Homo sapiens, 72 h + 96 h culture
Protocol: BRCA wild-type DLD-1 cells were cultured in an RPMI-1640 medium containing 10% fetal bovine serum, 100 U/mL penicillin, and 100 µg/mL streptomycin, and incubated in an incubator with 5% saturated CO2 at 37 °C. When the cells grew to 80% confluence, they were collected, centrifuged at 300 g for 10 min, and then plated onto a 96-well plate at 1000 cells/well. After 24 h, different final concentrations (0 µM, 1 µM, and 10 µM) of PARPi were added, and the cells were cultured for another 72 h. The cells were subjected to medium exchange treatment (re-supplemented with PARPi at the same final concentrations) and then cultured for another 96 h. The 96-well plate was taken out.

PARP1 = molecular target: T1, PARP1 (Homo sapiens, UniProt P09874); test: PARP1 enzyme assay (histone-coated plate, chemiluminescence); format: biochemical; conditions: PARP1 0.02 nM, DNA 0.8 nM, NAD+ 3.5 µM; read-out: PARP-1 IC50
T1 construct: purchased BPS 80501
Protocol: 1.1.1. Buffer preparation: PBST: 1× PBS, 0.05% Tween-20; blocking buffer: 1× PBS, 0.05% Tween-20, 5% BSA; reaction buffer: 50 mM Tris-HCl (pH 7.5), 0.005% Tween-20, 0.01% BSA.
1.1.2. Coating: A 50 ng/mL Histone coating solution was prepared with 1× PBS and then transferred to a 384-well reaction plate at 25 µL/well. The plate was coated at 4 °C overnight.
1.1.3. Washing: After the coating was completed, the coating solution was discarded, and the plate was washed with the PBST solution. The method was as follows: PBST was transferred to the 384-well reaction plate at 50 µL/well, and the plate was left to stand for 5 min. The washing solution was then discarded, and the plate was refilled. The washing step was repeated 3 times. Finally, the reaction plate was patted dry and left for the next step of blocking.
1.1.4. Blocking: The blocking buffer was transferred to the 384-well reaction plate at 50 µL/well, and the plate was left to stand for 1 h.
Washing: After the blocking was completed, the blocking buffer was discarded, and the plate was washed 3 times with the PBST solution according to the method in step 2. Finally, the reaction plate was patted dry.
1.1.5. A 1000-fold solution of a compound was prepared and then transferred at 1 µL/well to a 96-well plate containing 199 µL of the reaction buffer. The mixture was well mixed, and then the well mixed compound solution was transferred to the 384-well reaction plate at 5 µL/well. 1.1.6. A 25/10-fold PARP1-DNA solution was prepared with the reaction buffer and then transferred to the 384-well reaction plate at 10 µL/well. For the negative control wells, 10 µL
of the DNA solution was transferred. The final concentrations of PARP1 and DNA were 0.02 nM and 0.8 nM, respectively.
1.1.9. Washing: After the reaction was completed, the reaction solution was discarded, and the plate was washed 3 times with the PBST solution according to the method in step 2. Finally, the reaction plate was patted dry.
1.1.10. A primary antibody (anti-Poly/Mono-ADP Ribose Rabbit mAb) was diluted 2000-fold with the blocking buffer and then added at 20 µL/well.
1.1.11. Washing: The primary antibody was discarded, and the plate was washed 3 times with the PBST solution according to the method in step 2. Finally, the reaction plate was patted dry.
1.1.12. A secondary antibody (anti-rabbit IgG, HRP-linked Antibody) was diluted 2000-fold with the blocking buffer and then added at 20 µL/well.
1.1.13. Washing: The secondary antibody was discarded, and the plate was washed 3 times with the PBST solution according to the method in step 2. Finally, the reaction plate was patted dry.
1.1.14. Color development: Femto-ECL Substrate A and Femto-ECL Substrate B were mixed at a ratio of 1:1, and the mixture was transferred to the 384-well reaction plate at 25 µL/well. 1.1.15. Reading: The chemiluminescence values (RLU) were measured using Envision.

T1 sequence (P09874 whole entry): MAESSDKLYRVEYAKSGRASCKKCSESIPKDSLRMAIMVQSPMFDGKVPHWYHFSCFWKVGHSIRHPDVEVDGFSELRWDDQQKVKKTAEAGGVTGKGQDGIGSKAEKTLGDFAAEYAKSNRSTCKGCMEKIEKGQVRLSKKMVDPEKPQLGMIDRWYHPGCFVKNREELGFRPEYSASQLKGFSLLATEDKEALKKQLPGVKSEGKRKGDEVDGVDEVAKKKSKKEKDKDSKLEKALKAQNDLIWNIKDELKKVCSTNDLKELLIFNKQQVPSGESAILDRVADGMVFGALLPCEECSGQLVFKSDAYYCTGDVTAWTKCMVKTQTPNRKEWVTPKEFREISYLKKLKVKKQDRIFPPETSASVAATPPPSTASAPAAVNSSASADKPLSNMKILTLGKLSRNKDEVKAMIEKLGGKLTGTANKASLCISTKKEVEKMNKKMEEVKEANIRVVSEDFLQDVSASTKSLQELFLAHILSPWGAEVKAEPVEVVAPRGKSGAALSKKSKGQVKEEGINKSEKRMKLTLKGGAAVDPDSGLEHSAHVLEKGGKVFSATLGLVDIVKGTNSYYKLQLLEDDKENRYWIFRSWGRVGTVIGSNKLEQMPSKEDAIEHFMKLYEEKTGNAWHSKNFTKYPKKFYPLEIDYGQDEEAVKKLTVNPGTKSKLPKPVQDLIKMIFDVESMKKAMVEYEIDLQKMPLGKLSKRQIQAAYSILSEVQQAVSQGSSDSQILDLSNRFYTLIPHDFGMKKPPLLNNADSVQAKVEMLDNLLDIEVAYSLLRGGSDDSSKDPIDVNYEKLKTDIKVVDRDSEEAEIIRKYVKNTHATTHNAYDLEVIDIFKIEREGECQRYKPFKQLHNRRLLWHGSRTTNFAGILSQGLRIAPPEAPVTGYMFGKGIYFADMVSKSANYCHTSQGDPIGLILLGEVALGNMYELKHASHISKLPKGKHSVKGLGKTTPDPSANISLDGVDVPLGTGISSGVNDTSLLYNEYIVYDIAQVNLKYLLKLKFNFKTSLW

Row | SMILES | IC50 [1] [µM] | IC50 [2] [µM] | IC50 (PARP1) [µM]
1 | CNC(=O)c1ccc(C2=CCN(CC3Cc4[nH]c(=O)c(C(F)F)cc4CO3)CC2)c(F)n1 (stereo not drawn) [Example 52, 1'-((3-(Difluoromethyl)-2-oxo-1,5,7,8-tetrahydro-2H-pyrano[4,3-b]pyridin-7-yl)methyl)-2-flu oro-N-methyl-1',2',3',6'-tetrahydro-[3,4'-bipyridine]-6-carboxamide] | 0.2 | > 1 | 0.05 to 0.5
2 | CNC(=O)c1ccc(C2=CCN(CC3Cc4[nH]c(=O)c(C)cc4CO3)CC2)c(F)n1 (stereo not drawn) [Example 50, 2-Fluoro-N-methyl-1'-((3-methyl-2-oxo-1,5,7,8-tetrahydro-2H-pyrano[4,3-b]pyridin-7-yl)methyl)-1',2',3',6'-tetrahydro-[3,4'-bipyridine]-6-carboxamide] | 0.35 | > 1 | 0.05 to 0.5
3 | CNC(=O)c1ccc(C2=CCN(CC3Cc4[nH]c(=O)c(C5CC5)cc4CO3)CC2)c(Cl)n1 (stereo not drawn) [Example 69, 2-Chloro-1'-((3-cyclopropyl-2-oxo-1,5,7,8-tetrahydro-2H-pyrano[4,3-b]pyridin-7-yl)methyl)-N-methyl-1',2',3',6'-tetrahydro-[3,4'-bipyridine]-6-carboxamide] | 0.18 | > 1 | 0.05 to 0.5
4 | CCc1cc2c([nH]c1=O)CC(CN1CCN(c3ccc(C(=O)Nc4cnn(C)c4)nc3F)CC1)OC2 (stereo not drawn) [Example 78, 5-(4-((3-Ethyl-2-oxo-1,5,7,8-tetrahydro-2H-pyrano[4,3-b]pyridin-7-yl)methyl)piperazin-1-yl) -6-fluoro-N-(1-methyl-1H-pyrazol-4-yl)picolinamide] | 0.0028 | > 1 | ≤ 0.05
5 | CNC(=O)c1ccc(N2CCN(CC3Cc4[nH]c(=O)c(C)c(C)c4CO3)CC2)c(Cl)n1 (stereo not drawn) [Example 100, 6-Chloro-5-(4-((3,4-dimethyl-2-oxo-1,5,7,8-tetrahydro-2H-pyrano[4,3-b]pyridin-7-yl)methyl)piperazin-1-yl)-N-methylpicolinamide] | 0.0155 | > 1 | ≤ 0.05
6 | CNC(=O)c1ccc(C2=CCN(CC3Cc4[nH]c(=O)c(C)cc4CO3)CC2)c(Cl)n1 (stereo not drawn) [Example 70, 2-Chloro-N-methyl-1'-((3-methyl-2-oxo-1,5,7,8-tetrahydro-2H-pyrano[4,3-b]pyridin-7-yl)methyl)-1',2',3',6'-tetrahydro-[3,4'-bipyridine]-6-carboxamide] | 0.3 | > 1 | 0.05 to 0.5
7 | CNC(=O)c1ccc(N2CCN(C[C@H]3CCc4nc(C5CC5)c(=O)[nH]c4C3)CC2)cn1 [Example 58, (S)-5-(4-((2-Cyclopropyl-3-oxo-3,4,5,6,7,8-hexahydroquinoxalin-6-yl)methyl)piperazin-1-yl) -N-methylpicolinamide] | 0.14 | > 1 | ≤ 0.05
8 | CCc1cc2c([nH]c1=O)CC(CN1CCN(c3ccc(C(=O)NC4CC4)nc3)CC1)OC2 (stereo not drawn) [Compound 4, N-Cyclopropyl-5-(4-((3-ethyl-2-oxo-1,5,7,8-tetrahydro-2H-pyrano[4,3-b]pyridin-7-yl)methyl)piperazin-1-yl) picolinamide] | 0.004 | > 1 | ≤ 0.05
9 | [2H]C([2H])([C@H]1CCc2nc(C)c(=O)[nH]c2C1)N1CCN(c2ccc(C(=O)NC3CC3)nc2F)CC1 [Example 88, (S)-N-Cyclopropyl-6-fluoro-5-(4-((2-methyl-3-oxo-3,4,5,6,7,8-hexahydroquinoxalin-6-yl)methyl-d2)piperazin-1-yl)picolinamide] | 0.0065 | > 1 | ≤ 0.05
10 | CNC(=O)c1ccc(C2=CCN(C[C@H]3CCc4nc(C)c(=O)[nH]c4C3)CC2)c(F)n1 [Example 46, (S)-2-Fluoro-N-methyl-1'-((2-methyl-3-oxo-3,4,5,6,7,8-hexahydroquinoxalin-6-yl)methyl)-1', 2',3',6'-tetrahydro-[3,4'-bipyridine]-6-carboxamide] | 0.0067 | > 1 | ≤ 0.05

The next lines start with the values.

Row | IC50 [1] [µM] | IC50 [2] [µM] | IC50 (PARP1) [µM] | SMILES
11 | 0.0096 | > 1 | ≤ 0.05 | CNC(=O)c1ccc(N2CCN(CC3Cc4[nH]c(=O)c(C)cc4CO3)CC2)c(C#N)n1 (stereo not drawn) [Example 76, 6-Cyano-N-methyl-5-(4-((3-methyl-2-oxo-1,5,7,8-tetrahydro-2H-pyrano[4,3-b]pyridin-7-yl)methyl)piperazin-1-yl)picolinamide]
12 | 0.015 | > 1 | 0.05 to 0.5 | CNC(=O)c1ccc(N2CCN(CC3Cc4[nH]c(=O)c(C5CC5)cc4CO3)CC2)c(Cl)n1 (stereo not drawn) [Example 73, 6-Chloro-5-(4-((3-cyclopropyl-2-oxo-1,5,7,8-tetrahydro-2H-pyrano[4,3-b]pyridin-7-yl)methyl)piperazin-1-yl)-N-methylpicolinamide]
13 | 0.36 | > 1 | 0.05 to 0.5 | CNC(=O)c1ccc(C2CCN(CC3Cc4[nH]c(=O)c(C5CC5)cc4CO3)CC2)c(F)n1 (stereo not drawn) [Example 61, 5-(1-((3-Cyclopropyl-2-oxo-1,5,7,8-tetrahydro-2H-pyrano[4,3-b]pyridin-7-yl)methyl)piperidin-4-yl)-6-fluoro-N-methylpicolinamide]
14 | 0.016 | > 1 | 0.05 to 0.5 | Cc1cc2c([nH]c1=O)CC(CN1CCN(c3ccc(C(=O)NC4CC4)nc3F)CC1)OC2 (stereo not drawn) [Example 41, N-Cyclopropyl-6-fluoro-5-(4-((3-methyl-2-oxo-1,5,7,8-tetrahydro-2H-pyrano[4,3-b]pyridin-7-yl)methyl)piperazin-1-yl)picolinamide]
15 | 0.3 | > 1 | 0.05 to 0.5 | CNC(=O)c1ccc(C2CCN(CC3Cc4[nH]c(=O)c(C)cc4CO3)CC2)c(F)n1 (stereo not drawn) [Example 59, 6-Fluoro-N-methyl-5-(1-((3-methyl-2-oxo-1,5,7,8-tetrahydro-2H-pyrano[4,3-b]pyridin-7-yl)methyl)piperidin-4-yl)picolinamide]
16 | 0.0015 | > 1 | ≤ 0.05 | CCc1cc2c([nH]c1=O)CC(CN1CCN(c3ccc(C(=O)NC4CC4)nc3F)CC1)OC2 (stereo not drawn) [Compound 3, N-Cyclopropyl-5-(4-((3-ethyl-2-oxo-1,5,7,8-tetrahydro-2H-pyrano[4,3-b]pyridin-7-yl)methyl)piperazin-1-yl)-6-fluoropicolinamide]
17 | 0.0105 | > 1 | ≤ 0.05 | CNC(=O)c1ccc(N2CCN(C[C@H]3Cc4[nH]c(=O)c(C)cc4CO3)CC2)c(Cl)n1 [Example 95, (R)-6-chloro-N-methyl-5-(4-((3-methyl-2-oxo-1,5,7,8-tetrahydro-2H-pyrano[4,3-b]pyridin-7-yl)methyl)piperazin-1-yl)picolinamide]
